The test system of the assay is Duchenne Muscular Dystrophy (DMD) patients. The experiment in a line: Double-blind, placebo-controlled, randomised clinical trial: pulmonary function testing in DMD patients. Type of assay: in vivo, human. The method, then:
Efficacy of idebenone on respiratory parameters in Duchenne Muscular Dystrophy (DMD) patients was assessed in a double-blind, placebo-controlled, randomised parallel group, clinical trial conducted in one singe clinical center. DMD patients at age 8 to 16 years were treated with idebenone or placebo over a period of 52 weeks. After written informed consent was obtained from the patient and the patient's parent/legal guardian, patients who met the protocol eligibility criteria were enrolled at the study centre and randomised to daily treatment of idebenone (150 mg, 3× daily; total daily dose of 450 mg) or placebo (3× daily). Efficacy was assessed at baseline and at weeks 26 and 52.
A total of 21 patients were enrolled, 13 patients were randomised to treatment with idebenone and 8 randomised to treatment with placebo.
Idebenone was formulated as a round biconvex shaped, film-coated orange tablet, with a 10 mm diameter, containing 150 mg of idebenone and Lactose Monohydrate, Microcrystalline Cellulose, Croscarmellose Sodium, Povidone (Plasdone® K25), Magnesium Stearate and Silicon Dioxide as excipients. The tablet is manufactured by a wet granulation process performed with a high-shear granulator, followed by compression on a rotary tabletting machine and film-coating of the cores in a perforated pan coater. The composition of the placebo is based on the composition of the 150 mg film-coated tablet. The drug substance and the excipients have been replaced by a mixture of lactose monohydrate and microcrystalline cellulose. The composition of the coating remained constant. Placebo tablets are manufactured by direct compression, followed by film-coating.
Both idebenone (150 mg) and matching placebo were administered as an oral tablet. Patients were to take 1 tablet, 3 times a day with meals, for 12 months (52 weeks).
Pulmonary function testing was performed by one clinical evaluator (physical therapist) with longstanding expertise in the assessment of children with neuromuscular diseases, using state of the art equipment and methods. Testing was done with the patient sitting, with a standardized order of testing. Lung volumes (FVC, FEV1) were measured using a handheld Koko spirometer (PDS Instrumentation, Louisville, USA).
Maximum inspiratory (MIP) and expiratory (MEP) pressures were measured using a Magnehelic® manometer (Dwyer Instrument, Michigan City Ind., USA) connected to a mouthpiece. Peak expiratory flow (PEF) measurements were performed using a portable peak flow meter (Mini-Wright peak flow meter, Clement Clarke International). For all parameters the highest values from three consecutive recordings were used in compliance with criteria published by the American Thoracic Society (ATS) (American Thoracic Society. Am J Respir Crit Care Med 1994; 152:1107-1136).
Pulmonary function testing included the following parameters: • Forced vital capacity (FVC) [L] • Forced vital capacity % predicted • Forced expiratory volume in 1 second (FEV1) [L] • FEV1 (% predicted) • Peak expiratory flow (PEF) [L/min] • Peak expiratory flow (% predicted) • Maximal Inspiratory Pressure (MIP) [cmH2O] • Maximal Inspiratory Pressure (% predicted)
For peak expiratory flow conversion from measured values (in Liter) to ‘% predicted’ was performed by the following equation: […]
“peak expiratory flow−422.8+5.288×height”[height in cm]
For maximal inspiratory pressure (MIP) conversion from measured values (in cm H2O) to ‘% predicted’ was performed by the following equation: […]
“MIP−27.020−(4.132×age)−(0.003×height×weight)”[age: years; height: cm body height; weight: kg]
Efficacy of idebenone was determined for the parameters listed above as changes between baseline and end of treatment (at week 52) and comparisons were made between idebenone treated and placebo treated subjects.

The mark [1] stands for this setting: DMD patients, idebenone 450 mg/day oral, N = 13, week 52, mean ± SD.

We go through 1 compound from US20110092469A1, “Quinone derivative 2,3-dimethoxy-5-methyl-6-(10-hydroxydecyl)-1,4-benzoquinone for the treatment of respiratory illness in muscular dystrophy” (SANTHERA PHARMACEUTICALS (SCHWEIZ) AG, priority 2008, published 2011).

Molecules are shown by their SMILES.

`COC1=C(OC)C(=O)C(CCCCCCCCCCO)=C(C)C1=O` [Idebenone, 2,3-dimethoxy-5-methyl-6-(10-hydroxydecyl)-1,4-benzoquinone]: the “FVC (forced vital capacity), Week 52” value (DMD patients 8-16 years, idebenone 150 mg 3x daily oral, N = 13, week 52 (end of treatment), mean ± SD) amounted to 2.33 ± 0.67 L. In addition, where the note is “DMD patients on idebenone, 52 week treatment period”, the “MIP expressed as percent of the predicted value, increase over 52 weeks” value was 4.8±13.0%. For the same compound, for the setting “DMD patients on idebenone, difference in change vs placebo statistically significant”, the “Peak expiratory flow at week 52 compared to baseline (in words)” value is reported as “higher at week 52 compared to baseline”. Further, under “DMD patients on idebenone, expressed as more negative number, change clearly different from placebo”, the “Maximum inspiratory pressure (MIP) over the 52 week treatment period (in words)” value is “increased”. In addition, the “MIP, Change Week 52-BL” value (DMD patients, idebenone 450 mg/day oral, N = 13, change baseline to week 52, mean ± SD, more negative = larger inspiratory force, p 0.173 vs placebo (one-sided)) is −7.33 ± 13.0 cmH2O. In addition, the “Peak expiratory flow, Change Week 52-BL” value (DMD patients, idebenone 450 mg/day oral, N = 13, change baseline to week 52, mean ± SD, p 0.039 vs placebo (one-sided)) came out at 30.8 ± 54.4 L/min. The “Peak expiratory flow % predicted, Change Week 52-BL” value (DMD patients, idebenone 450 mg/day oral, N = 13, change baseline to week 52, mean ± SD, p 0.042 vs placebo (one-sided)) is recorded as 2.8 ± 13.8 % predicted. In addition, for the setting “DMD patients, idebenone 450 mg/day oral, N = 13, change baseline to week 52, mean ± SD, p 0.142 vs placebo (one-sided)”, the “MIP % predicted, Change Week 52-BL” value is given as 4.8 ± 13.0 % predicted. Under “DMD patients, idebenone 450 mg/day oral, N = 13, change baseline to week 52, mean ± SD, p 0.471 vs placebo (one-sided)”, the “FVC, Change Week 52-BL” value is 0.14 ± 0.31 L. Further, the “FEV1, Change Week 52-BL” value (DMD patients, idebenone 450 mg/day oral, N = 13, change baseline to week 52, mean ± SD, p 0.484 vs placebo (one-sided)) was found to be 0.11 ± 0.37 L. Further, for the setting “DMD patients, idebenone 450 mg/day oral, N = 13, change baseline to week 52, mean ± SD, p 0.651 vs placebo (one-sided)”, the “FEV1 % predicted, Change Week 52-BL” value is on record as −2.0 ± 9.2 % predicted. In addition, the “FVC % predicted, Change Week 52-BL” value (DMD patients, idebenone 450 mg/day oral, N = 13, change baseline to week 52, mean ± SD, p 0.793 vs placebo (one-sided)) is given as −1.2 ± 6.4 % predicted. Moreover, under setting [1], the “FEV1 % predicted, Week 52” value was 74.5 ± 23.88 % predicted; the “FEV1 (forced expiratory volume 1 second), Week 52” value came to 2.08 ± 0.71 L; the “FVC % predicted, Week 52” value is listed as 75.3 ± 24.79 % predicted; the “MIP % predicted, Week 52” value is 44.1 ± 13.38 % predicted. Further, under setting [1], the “MIP (maximal inspiratory pressure), Week 52” value is reported as −47.3 ± 14.09 cmH2O; the “Peak expiratory flow % predicted, Week 52” value is 76.9 ± 20.13 % predicted; the “Peak expiratory flow, Week 52” value turned out to be 292.3 ± 90.6 L/min. The “Changes in FVC, FVC % predicted, FEV1 and FEV1 % predicted versus placebo (in words)” value (DMD patients, idebenone treatment 52 weeks) was “not different from placebo treatment”.
